Test results taken from patent US8937058B2, “17-hydroxy-19-nor-21-carboxylic acid-steroid γ-lactone derivative, use thereof, and medicament containing the derivative” (priority 2007, dated 2015).
Like-named read-outs stand apart in the source and are kept apart here.

What was measured:
[1] = biological target: T1, mineralocorticoid receptor (Homo sapiens (Human), UniProt P08235); experiment: Mineralocorticoid receptor binding test (displacement of 3H-aldosterone, cytosol from Hi5 insect cells); conditions: reference substance 3H-aldosterone
T1 sequence (P08235 whole entry): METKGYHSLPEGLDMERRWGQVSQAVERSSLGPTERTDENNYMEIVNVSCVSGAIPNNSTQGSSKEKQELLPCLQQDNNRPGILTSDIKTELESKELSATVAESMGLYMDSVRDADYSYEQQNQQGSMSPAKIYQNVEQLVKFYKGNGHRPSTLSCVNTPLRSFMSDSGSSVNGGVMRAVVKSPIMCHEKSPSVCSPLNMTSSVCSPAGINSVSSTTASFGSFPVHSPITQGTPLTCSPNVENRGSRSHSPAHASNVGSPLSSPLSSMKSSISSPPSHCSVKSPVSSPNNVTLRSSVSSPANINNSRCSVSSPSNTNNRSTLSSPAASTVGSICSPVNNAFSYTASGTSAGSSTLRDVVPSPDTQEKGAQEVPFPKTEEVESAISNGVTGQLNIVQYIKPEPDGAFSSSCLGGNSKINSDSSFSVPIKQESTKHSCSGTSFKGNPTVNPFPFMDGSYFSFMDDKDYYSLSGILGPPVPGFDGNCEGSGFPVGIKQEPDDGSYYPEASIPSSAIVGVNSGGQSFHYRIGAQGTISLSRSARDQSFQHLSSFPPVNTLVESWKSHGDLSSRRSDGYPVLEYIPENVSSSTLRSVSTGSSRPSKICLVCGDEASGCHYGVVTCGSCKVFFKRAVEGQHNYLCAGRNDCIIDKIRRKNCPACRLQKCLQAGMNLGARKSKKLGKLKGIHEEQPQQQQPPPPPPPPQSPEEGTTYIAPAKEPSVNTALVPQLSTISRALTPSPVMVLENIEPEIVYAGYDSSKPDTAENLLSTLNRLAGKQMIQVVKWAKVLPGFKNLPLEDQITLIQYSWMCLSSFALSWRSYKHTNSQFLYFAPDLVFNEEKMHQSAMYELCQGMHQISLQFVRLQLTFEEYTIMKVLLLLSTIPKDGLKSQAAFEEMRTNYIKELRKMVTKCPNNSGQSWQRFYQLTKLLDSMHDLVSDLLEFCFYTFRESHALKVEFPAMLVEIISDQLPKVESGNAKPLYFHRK
Description: 2. Mineralocorticoid Receptor Binding Test:
The test was carried out as in 1., with the following modifications: cytosol from mineralocorticoid receptor-expressing insect cells (Hi5) was used, and the reference substance was ^3H-aldosterone.

androgen receptor [2] = biological target: T2, androgen receptor (Homo sapiens (Human), UniProt P10275); conditions: for IC50: read-out: Androgen receptor IC50, receptor binding, 3H-testosterone displacement; for Androgen receptor Competition factor: reference substance 3H-testosterone
T2 sequence (P10275 whole entry, species assumed): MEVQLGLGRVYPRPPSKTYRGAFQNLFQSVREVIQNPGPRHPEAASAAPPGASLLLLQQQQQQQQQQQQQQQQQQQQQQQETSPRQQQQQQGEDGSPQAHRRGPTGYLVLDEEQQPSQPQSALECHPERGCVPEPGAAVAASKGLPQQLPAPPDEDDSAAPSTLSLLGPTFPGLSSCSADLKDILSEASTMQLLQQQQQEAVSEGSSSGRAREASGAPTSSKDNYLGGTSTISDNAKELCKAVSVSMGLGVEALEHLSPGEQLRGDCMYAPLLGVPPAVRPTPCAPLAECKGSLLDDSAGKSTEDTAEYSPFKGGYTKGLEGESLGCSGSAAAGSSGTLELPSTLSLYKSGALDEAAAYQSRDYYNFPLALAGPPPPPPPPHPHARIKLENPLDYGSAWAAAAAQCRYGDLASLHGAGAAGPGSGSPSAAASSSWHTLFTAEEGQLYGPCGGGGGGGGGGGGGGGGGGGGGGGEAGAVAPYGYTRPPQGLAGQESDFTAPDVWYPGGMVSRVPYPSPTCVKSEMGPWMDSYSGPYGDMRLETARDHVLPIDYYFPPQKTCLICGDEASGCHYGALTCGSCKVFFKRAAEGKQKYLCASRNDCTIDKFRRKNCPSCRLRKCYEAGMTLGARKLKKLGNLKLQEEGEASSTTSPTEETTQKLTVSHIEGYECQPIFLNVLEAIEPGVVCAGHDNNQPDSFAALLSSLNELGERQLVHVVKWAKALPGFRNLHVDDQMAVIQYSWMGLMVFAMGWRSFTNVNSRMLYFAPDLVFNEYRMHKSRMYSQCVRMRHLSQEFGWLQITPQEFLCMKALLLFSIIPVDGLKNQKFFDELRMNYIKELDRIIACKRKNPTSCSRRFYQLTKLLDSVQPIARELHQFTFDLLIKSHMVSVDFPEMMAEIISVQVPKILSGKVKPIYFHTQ
Description: 3. Androgen Receptor Binding Test:
The test was carried out as in 1., with the following modifications: cytosol from androgen receptor-expressing insect cells (Hi5) was used, and the reference substance was ^3H-testosterone.

[3] = biological target: fusion protein from the PR-ligand-binding domain and a Gal4-transactivation domain (Homo sapiens (Human), UniProt P06401); experiment: cell-based; conditions: for Progesterone receptor Agonism EC50 / Progesterone receptor Agonism efficacy: in-vitro transactivation, CHO K1 reporter cells; for Progesterone receptor Agonism EC50: 16 hours
Chain of fusion protein from the PR-ligand-binding domain and a Gal4-transactivation domain (P06401 679-913): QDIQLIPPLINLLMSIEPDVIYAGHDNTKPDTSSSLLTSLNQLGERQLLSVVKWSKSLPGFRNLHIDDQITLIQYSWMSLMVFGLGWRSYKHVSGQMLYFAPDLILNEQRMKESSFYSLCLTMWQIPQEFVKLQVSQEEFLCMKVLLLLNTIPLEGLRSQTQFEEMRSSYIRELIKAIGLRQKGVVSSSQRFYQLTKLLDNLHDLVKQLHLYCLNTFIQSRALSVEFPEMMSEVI
Description: 4. Determination of Progestational Action by Means of Transactivation Tests:
The test compounds were added eight hours later, and the cells were incubated with the compounds for 16 hours. The tests were carried out in triplicate. At the end of incubation the medium containing the effector was removed and replaced with lysis buffer. After luciferase assay substrate (Promega, #E1501) had been added, the 96-well plates were then put in a microplate luminometer (Pherastar, BMG Labtech), and the luminescence was measured. The IC50 values were evaluated using software for calculating dose-effect relations.

[4] = biological target: T1, mineralocorticoid receptor; experiment: Antimineralocorticoid action by transactivation test (MDCK luciferase reporter cells); assay type: cell-based; conditions: in-vitro transactivation, 1 nM aldosterone; for IC50: read-out: Mineralocorticoid receptor Antagonism IC50
Description: 5. Determination of Antimineralocorticoid Action by Means of Transactivation Tests:
The antimineralocorticoid activity of the test substances was determined as for the transactivation tests described above.
The following modifications were undertaken: In this case reporter cell lines were used (MDCK cells) that express the human mineralocorticoid receptor, and transiently contain a reporter construct that contains luciferase under the control of a steroid hormone-responsive promoter.
For determination of antimineralocorticoid efficacy, 1 nM aldosterone (SIGMA A-6628, Lot 22H4033) was added to the cells, to achieve almost maximum stimulation of the reporter gene. Inhibition of the effect indicated a mineralocorticoid-antagonistic action of the substances (Table 2; for comparison, corresponding values for drospirenone (A)).

androgen receptor [5] = biological target: T2, androgen receptor; experiment: cell-based; conditions: for Androgen receptor Agonism efficacy / Androgen receptor Antagonism efficacy: in-vitro transactivation, PC3 cells; for Androgen receptor Antagonism efficacy: 0.05 nM R1881
Description: 6. Determination of Androgenic/Antiandrogenic Action by Means of Transactivation Tests:
The androgenic/antiandrogenic action of the test substances was determined as for the transactivation tests described above.
The following modifications were made: In this case reporter cell lines were used (PC3 cells) that express the androgen receptor, and a reporter construct that contains luciferase under the control of a steroid hormone-responsive promoter.
For determination of the antiandrogenic efficacy, 0.05 nM R1881 was added to the cells, in order to achieve almost maximum stimulation of the reporter gene.

progesterone receptor = progesterone receptor (Homo sapiens (Human), UniProt P06401); conditions: for Progesterone receptor (PR) Competition factor: CF of 1 = affinity of progesterone, CF >1 lower affinity; for CF PR/CF MR: ratio of the competition factors CF(PR) and CF(MR); for IC50: read-out: Progesterone receptor (PR) IC50, receptor binding, 3H-progesterone displacement
Chain of progesterone receptor (P06401 whole entry, species assumed): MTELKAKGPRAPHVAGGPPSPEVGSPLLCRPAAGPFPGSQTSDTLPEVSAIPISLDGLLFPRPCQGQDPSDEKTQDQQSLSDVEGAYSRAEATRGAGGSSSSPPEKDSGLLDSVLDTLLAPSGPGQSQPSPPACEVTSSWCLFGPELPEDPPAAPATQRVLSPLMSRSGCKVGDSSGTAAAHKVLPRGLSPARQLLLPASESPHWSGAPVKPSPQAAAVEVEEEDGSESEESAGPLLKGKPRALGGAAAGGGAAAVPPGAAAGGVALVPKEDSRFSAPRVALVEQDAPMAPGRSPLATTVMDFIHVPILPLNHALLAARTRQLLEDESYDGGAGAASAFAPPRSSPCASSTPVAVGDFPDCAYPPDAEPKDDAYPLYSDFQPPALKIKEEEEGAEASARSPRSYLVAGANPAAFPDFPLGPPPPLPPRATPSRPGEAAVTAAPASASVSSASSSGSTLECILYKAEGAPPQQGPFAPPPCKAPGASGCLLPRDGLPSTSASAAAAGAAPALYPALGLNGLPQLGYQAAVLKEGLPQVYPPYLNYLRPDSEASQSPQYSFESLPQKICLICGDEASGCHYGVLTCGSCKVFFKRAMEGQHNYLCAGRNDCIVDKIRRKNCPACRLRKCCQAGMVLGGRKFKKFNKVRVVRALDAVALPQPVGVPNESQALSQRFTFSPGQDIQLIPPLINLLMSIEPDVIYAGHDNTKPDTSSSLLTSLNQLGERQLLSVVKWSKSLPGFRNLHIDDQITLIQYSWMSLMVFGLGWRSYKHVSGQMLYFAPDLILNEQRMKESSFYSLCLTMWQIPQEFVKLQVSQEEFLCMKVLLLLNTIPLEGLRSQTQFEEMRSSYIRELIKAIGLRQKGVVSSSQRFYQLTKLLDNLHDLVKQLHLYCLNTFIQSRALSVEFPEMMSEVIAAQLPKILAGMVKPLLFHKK
Description: Progesterone Receptor Binding Test:
Using cytosol from progesterone receptor-expressing insect cells (Hi5), competitive binding to the progesterone receptor was determined from the ability to displace ^3H-progesterone as reference substance from the receptor.

| SMILES | Mineralocorticoid receptor (MR) Competition factor [1] | IC50 (androgen receptor [2]) | Androgen receptor Competition factor (androgen receptor [2]) | Progesterone receptor Agonism EC50 [3] | Mineralocorticoid receptor Antagonism efficacy [4] | IC50 [4] | EC50 (androgen receptor [5]) | IC50 (androgen receptor [5]) | Androgen receptor Agonism efficacy (androgen receptor [5]) | Androgen receptor Antagonism efficacy (androgen receptor [5]) | Progesterone receptor (PR) Competition factor (progesterone receptor) | CF PR/CF MR (progesterone receptor) | IC50 (progesterone receptor) | EC50 [3] | Progesterone receptor Agonism efficacy [3] |
| --- | --- | --- | --- | --- | --- | --- | --- | --- | --- | --- | --- | --- | --- | --- | --- |
| CC[C@]12CC[C@H]3[C@@H]([C@H](C)CC4=CC(=O)CC[C@@H]43)[C@@H]1CC[C@@]21C=CC(=O)O1 (stereo in doubt) [Example 8A, 17β-Hydroxy-7α,18-dimethyl-19-nor-17α-pregna-4,20(Z)-dien-3-one-21-carboxylic acid γ-lactone] | 1.0 | 43 nM | 1.3 | inactive | 113.8% | 11 nM | 1.7 nM | 1000 nM | 78.75% | 5% | 5.95 | 5.95 | 160 nM |  |  |
| CC[C@@H]1CC2=CC(=O)CC[C@@H]2[C@H]2CC[C@@]3(CC)[C@@H](CC[C@@]34C=CC(=O)O4)[C@H]12 (stereo in doubt) [Example 9A, 17β-Hydroxy-7α-ethyl-18-methyl-19-nor-17α-pregna-4,20(Z)-dien-3-one-21-carboxylic acid γ-lactone] | 1.6 | 76 nM | 2.3 | inactive | 97.6% | 130 nM | 5.1 nM | 1000 nM | 63.33% | 5% | 25.12 | 15.70 | 670 nM |  |  |
| C=C[C@@H]1CC2=CC(=O)CC[C@@H]2[C@H]2CC[C@@]3(CC)[C@@H](CC[C@@]34C=CC(=O)O4)[C@@H]21 (stereo in doubt) [Example 10A, 17β-Hydroxy-7α-vinyl-18-methyl-19-nor-17α-pregna-4,20(Z)-dien-3-one-21-carboxylic acid γ-lactone] | 5.1 | 50 nM | 1.8 |  | 80.0% | 940 nM | 1.3 nM | 1000 nM | 74.78% | 5% | 18.90 | 3.71 | 450 nM | 140 nM | 52.4% |
| CC[C@]12CC[C@H]3[C@@H]([C@H](C4CC4)CC4=CC(=O)CC[C@@H]43)[C@@H]1CC[C@@]21C=CC(=O)O1 (stereo in doubt) [Example 11A, 17β-Hydroxy-7α-cyclopropyl-18-methyl-19-nor-17α-pregna-4,20(Z)-dien-3-one-21-carboxylic acid γ-lactone] | 2.4 | 94 nM | 3.4 |  | 88.8% | 230 nM | 10 nM | 16 nM | 41.38% | 34.45% | 21.03 | 8.76 | 500 nM | 120 nM | 47.7% |
| C[C@]12CC[C@H]3[C@@H]([C@H](C4CC4)CC4=CC(=O)CC[C@@H]43)[C@@H]1CC[C@@]21C=CC(=O)O1 (stereo in doubt) [Example 12A, 17β-Hydroxy-7α-cyclopropyl-19-nor-17α-pregna-4,20(Z)-dien-3-one-21-carboxylic acid γ-lactone] | 12.1 | 300 nM | 9.6 | inactive | 116.9% | 110 nM | 67 nM | 48 nM | 21.13% | 69.75% | 109.04 | 9.01 | 2600 nM |  |  |
